Measured values as given in US7128895B2, “Use of bile acid derivatives conjugated with metal ion chelated complexes for the diagnostic assessment of microvascular permeability” (Bracco Imaging S.p.A., priority 2000, dated 2006).
Entries after “also recorded” stand apart in the source; their conditions may differ.

Test: Urinary and faecal excretion screening of an intravenously administered contrast agent
Type: in vivo
Settings: rats
Procedure: Experimental Model for the Urinary and Faecal Excretion Screening of an Intravenously Administered Contrast Agent
The experimentation is performed on 6 rats.
The rats are individually housed in metabolic cages and urine and faeces are collected daily, for 7 days after administration. In particular faeces and urine are collected at the following time periods: 0 to 24 h,and every 24 hours up to 7 days.
The animals are killed by decapitation at 7 days post-dosing and animals blood is collected in heparinised test tubes and then centrifuged for 15 min at 3500·g to separate the plasma. After bleeding, liver, spleen, femurs and kidneys are collected and weighted to evaluate residual content of Gd in the organs. Residual gadolinium concentration in the organic samples is determined by inductively-coupled plasma atomic emission spectrometry (ICP-AES) with a Jobin-Yvon Mod 24 spectrometer
Excretion Screening of Rats Injected with B22956/1.
The screening is performed using the contrast compound as 0.25M solution. The agent in intravenously injected in 6 rats with single doses of 0.1 and 1.0 mmol·kg^−1 of animal body weight.

[1] = 0.1 mmol·kg^-1 intravenous, 7 days
[2] = 1.0 mmol·kg^-1 intravenous, 0 to 7 days
[3] = 1.0 mmol·kg^-1 intravenous, within 24 h after injection

cumulative urinary and faecal elimination within 7 days (0.1 mmol·kg^-1 intravenous): 94 to 102 % of the ID | average cumulative amount of gadolinium recovered in faeces [1]: 88.2±7.9 % of the injected dose (ID) | average cumulative amount of gadolinium recovered in urine [1]: 9.0±3.7 % of the ID | injected dose recovered in the faeces within 24 h (0.1 mmol·kg^-1 intravenous, within 24 h after injection): ~87 % of the injected dose | cumulative urinary and faecal elimination within 7 days (1.0 mmol·kg^-1 intravenous): 89 to 92 % of the ID | gadolinium recovered in faeces, cumulative amount [2]: 39.7±1.4 % of the ID | gadolinium recovered in urine, cumulative amount [2]: 52.7 % of the ID | injected dose recovered in the faeces within 24 h [3]: about 37 % of ID | injected dose recovered in the urine within 24 h [3]: ~48 % of the injected dose | residual Gd in the plasma as fraction of injected dose (7 days after administration, plasma volume taken as 40 mL/Kg): less than 0.04 % of the injected dose
Substance: gadolinium complex of the [3(S),5,12]-3-[[4-[bis[2-[bis(carboxymethyl)-amino]ethyl]amino]-4-carboxy-1-oxobutyl]amino]-12-hydroxycholan-24-oic acid [B22956/1]
residual Gd in plasma, liver, spleen, femurs and kidneys (7 days after 0.1 or 1.0 mmol·kg^-1): almost total absence of gadolinium residues; also recorded: very low or negligible | residual content of Gd in plasma (7 days, both administered doses, ICP-AES detection limit): < 0.05 μg gadolinium/mL
